US12109177B2 (priority 2021, dated 2024)
Entries after “also recorded” stand apart in the source; their conditions may differ. Where two headings read alike, the source gives them in different places.

Assays:
[1] = tested on: VX2 brain tumor; settings: rabbit, in vivo
[2] = tested on: blood neutrophils; settings: rabbit, in vivo
[3] = tested on: flank GL261 tumor; settings: in vivo
[4] = tested on: blood neutrophils; settings: mouse, in vivo

| SMILES | long-term survivors [1] | blood neutrophil count [2] | deaths from tumor regrowth [1] | intratumoral accumulation of neutrophils [1] | mice died of treatment-related (immediate) toxicity ([3]; female, C57BL6, mouse) | mice cured (total tumor clearance, absence of any tumor after 3 weeks) ([3]; mouse) | mice with partial tumor clearance (initial reduction, later regrowth) ([3]; mouse) | therapeutic effect of agent alone ([3]; mouse) | lymphocyte counts [2] | other blood cell types [2] | time to neutrophil count rebound after spore injection [2] | blood neutrophil count [4] | other blood cell counts [4] | lymphocyte count ([4]; ip) |
| --- | --- | --- | --- | --- | --- | --- | --- | --- | --- | --- | --- | --- | --- | --- |
| O=P1(N(CCCl)CCCl)NCCCO1 (stereo not drawn) [CPA, cyclophosphamide] | without any long-term survivor | significant neutrophil suppression |  |  |  |  |  |  |  |  |  |  |  |  |
| NC(=O)NO [HU, hydroxyurea] | 8 |  | one | effective in suppressing the intratumoral accumulation of neutrophils | 2/12 | 9/12 | 1/12 | did not show any noticeable therapeutic effects | not significantly affected | has not affected other blood cell types significantly | at least 3 days | greatly suppressed the neutrophil levels; also recorded: drastically reduced the neutrophil counts | also affected in various degrees | significant drop of lymphocytes |
